From patent publication US11198741B2, “Medicines for topic use based on sulfated hyaluronic acid as activating or inhibiting agent of the cytokine activity” (Fidia Farmaceutici S.p.A., priority 2009, dated 2021) come the findings set out here.

This assay has as its target T1, IL-1 receptor (Mus musculus, UniProt P13504).
T1 construct: the line of murine fibroblasts 3T3 was used, sensitive to the cytotoxic activity of IL-1, expressing its relative receptor; endogenous in cells; host or cells: 3T3 murine fibroblasts (whole cells)
T1 sequence (P13504 20-576): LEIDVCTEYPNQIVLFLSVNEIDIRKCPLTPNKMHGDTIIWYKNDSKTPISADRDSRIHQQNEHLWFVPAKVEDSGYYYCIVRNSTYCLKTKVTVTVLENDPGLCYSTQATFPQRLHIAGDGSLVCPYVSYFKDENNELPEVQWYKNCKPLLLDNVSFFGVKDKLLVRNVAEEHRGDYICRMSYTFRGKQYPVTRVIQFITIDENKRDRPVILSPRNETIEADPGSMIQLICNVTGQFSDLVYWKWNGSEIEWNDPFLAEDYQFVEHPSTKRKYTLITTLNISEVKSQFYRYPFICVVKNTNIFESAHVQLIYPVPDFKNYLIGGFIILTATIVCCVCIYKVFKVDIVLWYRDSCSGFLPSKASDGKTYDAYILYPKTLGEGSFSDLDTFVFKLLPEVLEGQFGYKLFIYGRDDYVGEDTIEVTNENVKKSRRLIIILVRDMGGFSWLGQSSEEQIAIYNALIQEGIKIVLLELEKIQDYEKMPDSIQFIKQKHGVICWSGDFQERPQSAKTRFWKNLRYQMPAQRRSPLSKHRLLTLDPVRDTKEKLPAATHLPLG
The assay can be described thus: Inhibition of the binding of 125I-IL-1 to its receptor in 3T3 fibroblasts (Radioligand Binding). As to conditions: 3T3 cells of mouse, 125I-IL-1 10 pM, sample 1 mg/ml, 37° C. 2 hours; both medium and low MW. An excerpt:
These experiments were effected to evaluate the effectiveness of the samples tested (prepared according to Examples 1-3 and 4) on the capacity of inhibiting the binding of IL-1 to its receptor expressed by 3T3 cells of mouse, normally used in vitro for this type of experiment, carried out with iodinated cytokine components for an evaluation in Radioligand Binding assays. The experimental procedure was effected as described in Chin J et al., J Exp Med, 1987, 165:70-86. In short, the line of murine fibroblasts 3T3 was used, sensitive to the cytotoxic activity of IL-1, expressing its relative receptor. […] At the end of the incubation, the cells were washed with phosphate buffer, then dissolved in 2.5 M of NaOH and counted in a γ-counter.

“sulfated hyaluronic acid degree 3 [HAS3]”: the “inhibition of the binding of IL-1 to its receptor” value amounted to 30%.
